# Test results from patent US20250353853A1, “FLAVIVIRUS INHIBITORS” (IRBM S.P.A., priority 2022, published 2025).
# Read-outs that look alike come from different tables or passages of the source.
# How the values were obtained:
# [1] = test system: ZIKV replicon in Vero cells; assay: ZIKV Replication Inhibition Assay (replicon, NanoLuc); details: Zika virus, Vero, 72 h, read-out: Zika Replicon EC50
# [2] = molecular target: West Nile Virus (WNV) NS2B-NS3 protease (West Nile virus (WNV), UniProt P06935); assay: WNV Protease Inhibition Assay; assay type: biochemical
# Sequence of West Nile Virus (WNV) NS2B-NS3 protease (P06935 1502-1679 limits assumed): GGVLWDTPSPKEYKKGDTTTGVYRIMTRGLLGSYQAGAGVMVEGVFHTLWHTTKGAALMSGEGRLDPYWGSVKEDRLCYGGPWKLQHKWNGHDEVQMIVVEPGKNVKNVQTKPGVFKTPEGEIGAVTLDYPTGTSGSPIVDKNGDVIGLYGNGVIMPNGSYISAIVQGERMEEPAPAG
# Sequence of West Nile Virus (WNV) NS2B-NS3 protease (P06935 1371-1501 partner limits assumed): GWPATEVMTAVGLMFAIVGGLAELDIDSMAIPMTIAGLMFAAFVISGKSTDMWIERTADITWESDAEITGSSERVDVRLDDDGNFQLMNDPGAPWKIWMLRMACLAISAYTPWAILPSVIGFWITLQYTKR
# Text: WNV Protease Inhibition Assay
# [3] = 2 nM protease, 10 μM pERTKR-AMC substrate, read-out: WNV Protease IC50
SMILES,EC50 [1] [nM],"IC50 [2, 3] [nM]",IC50 [2] [nM]
"O=C([N-]c1c[n+](Cc2ccc(-c3cncnc3Cl)cn2)no1)Nc1cccc(C(F)(F)F)c1 [Example 179, (3-((5-(4-chloropyrimidin-5-yl)pyridin-2-yl)methyl)-1,2,3-oxadiazol-3-ium-5-yl)((3-(trifluoromethyl)phenyl)carbamoyl)amide]",1000 to 20000,< 100,–
"C[C@H](c1ccc(Br)cc1)[n+]1cc([N-]C(=O)Nc2cccc(C(F)(F)F)c2)on1 [Example 68, (R)-(3-(1-(4-bromophenyl)ethyl)-1,2,3-oxadiazol-3-ium-5-yl)((3-(trifluoromethyl)phenyl)carbamoyl)amide]",1000 to 20000,–,1000 to 20000
"Cc1noc(C)c1-c1ccc(C[n+]2cc([N-]C(=O)Nc3cccc(C(F)(F)F)n3)on2)nc1 [Example 161, (3-((5-(3,5-dimethylisoxazol-4-yl)pyridin-2-yl)methyl)-1,2,3-oxadiazol-3-ium-5-yl)((6-(trifluoromethyl)pyridin-2-yl)carbamoyl)amide]",1000 to 20000,–,1000 to 20000
"O=C([N-]c1c[n+]([C@@H](Cc2ccccc2)CN2CCCC2)no1)Nc1cccc(C(F)(F)F)c1 [Example 40, (S)-(3-(1-phenyl-3-(pyrrolidin-1-yl)propan-2-yl)-1,2,3-oxadiazol-3-ium-5-yl)((3-(trifluoromethyl)phenyl)carbamoyl)amide]",1000 to 20000,–,1000 to 20000
"Cc1n[nH]c(C)c1-c1ccc(C[n+]2cc([N-]C(=O)Nc3cccc(C(F)(F)F)c3)on2)nc1 [Example 151, (3-((5-(3,5-dimethyl-1H-pyrazol-4-yl)pyridin-2-yl)methyl)-1,2,3-oxadiazol-3-ium-5-yl)((3-(trifluoromethyl)phenyl)carbamoyl)amide]",100 to 1000,–,100 to 1000
"C[C@H](c1ccc(-c2cncnc2)cc1)[n+]1cc([N-]C(=O)Nc2cncc(C(F)(F)F)c2)on1 [Example 75, (R)-(3-(1-(4-(pyrimidin-5-yl)phenyl)ethyl)-1,2,3-oxadiazol-3-ium-5-yl)((5-(trifluoromethyl)pyridin-3-yl)carbamoyl)amide]",100 to 1000,< 100,–
"Cc1ncnc(C)c1-c1ccc(C[n+]2cc([N-]C(=O)Nc3cccc(C(F)(F)F)c3)on2)nn1 [Example 184, (3-((6-(4,6-dimethylpyrimidin-5-yl)pyridazin-3-yl)methyl)-1,2,3-oxadiazol-3-ium-5-yl)((3-(trifluoromethyl)phenyl)carbamoyl)amide]",100 to 1000,–,100 to 1000
"Cc1noc(C)c1-c1ccc(C[n+]2cc([N-]C(=O)Nc3ccnc(C(F)(F)F)c3)on2)cc1 [Example 186, (3-(4-(3,5-dimethylisoxazol-4-yl)benzyl)-1,2,3-oxadiazol-3-ium-5-yl)((2-(trifluoromethyl)pyridin-4-yl)carbamoyl)amide]",< 100,< 100,–
"O=C([N-]c1c[n+](Cc2ccc(-c3ccnnc3)cn2)no1)Nc1cncc(C(F)(F)F)c1 [Example 145, (3-((5-(pyridazin-4-yl)pyridin-2-yl)methyl)-1,2,3-oxadiazol-3-ium-5-yl)((5-(trifluoromethyl)pyridin-3-yl)carbamoyl)amide]",1000 to 20000,–,100 to 1000
"Cc1ccnnc1-c1ccc(C[n+]2cc([N-]C(=O)Nc3cccc(C(F)(F)F)c3)on2)nc1 [Example 162, (3-((5-(4-methylpyridazin-3-yl)pyridin-2-yl)methyl)-1,2,3-oxadiazol-3-ium-5-yl)((3-(trifluoromethyl)phenyl)carbamoyl)amide]",< 100,< 100,–
"O=C([N-]c1c[n+](Cc2ccc(-c3ccncc3)cc2)no1)Nc1cncc(C(F)(F)F)c1 [Example 67, (3-(4-(pyridin-4-yl)benzyl)-1,2,3-oxadiazol-3-ium-5-yl)((5-(trifluoromethyl)pyridin-3-yl)carbamoyl)amide]",100 to 1000,–,100 to 1000
"COc1ncc(-c2ccc(C[n+]3cc([N-]C(=O)Nc4cncc(C(F)(F)F)c4)on3)nc2)c(C)n1 [Example 133, (3-((5-(2-methoxy-4-methylpyrimidin-5-yl)pyridin-2-yl)methyl)-1,2,3-oxadiazol-3-ium-5-yl)((5-(trifluoromethyl)pyridin-3-yl)carbamoyl)amide]",100 to 1000,–,100 to 1000
